Assay results published in patent US12696902B2, “Pesticidal pyrazole and triazole derivatives” (priority 2019, dated 2026).

Assays:
Assay type in all cases: in vivo
[1] = tested on: Yellow Fever Mosquito (Aedes aegypti); assay: whole plant or invertebrate; conditions: 48 h, freshly hatched A. aegypti larvae, larval mortality visually assessed after 2 days, read-out: mortality in comparison with untreated controls
Procedure: For evaluating control of yellow fever mosquito (Aedes aegypti) the test unit consisted of 96-well-microtiter plates containing 200 μl of tap water per well and 5-15 freshly hatched A. aegypti larvae.
The active compounds or mixtures were formulated using a solution containing 75% (v/v) water and 25% (v/v) DMSO. Different concentrations of formulated compounds or mixtures were sprayed onto the insect diet at 2.5 μl, using a custom built micro atomizer, at two replications. For experimental mixtures in these tests identical volumes of both mixing partners at the desired concentrations respectively, were mixed together.
After application, microtiter plates were incubated at 28±1° C., 80±15% RH for 2 days. Larval mortality was then visually assessed.

[2] = tested on: Boll Weevil (Anthonomus grandis); assay: Action on boll weevil, egg and larval mortality on insect diet in microtiter plates; conditions: 120 h, A. grandis eggs on insect diet, egg and larval mortality after 5 days, read-out: mortality in comparison with untreated controls
Procedure: For evaluating control of boll weevil (Anthonomus grandis) the test unit consisted of 96-well-microtiter plates containing an insect diet and 5-10 A. grandis eggs.
The compounds were formulated using a solution containing 75% (v/v) water and 25% (v/v) DMSO. Different concentrations of formulated compounds were sprayed onto the insect diet at 5 μl, using a custom built micro atomizer, at two replications.
After application, microtiter plates were incubated at about 25+1° C. and about 75+5% relative humidity for 5 days. Egg and larval mortality were then visually assessed.

[3] = tested on: Tobacco Budworm (Heliothis virescens); assay: Action on tobacco budworm, egg and larval mortality on insect diet in microtiter plates; conditions: 120 h, H. virescens eggs on insect diet, egg and larval mortality after 5 days, read-out: mortality in comparison with untreated controls
Procedure: For evaluating control of tobacco budworm (Heliothis virescens) the test unit consisted of 96-well-microtiter plates containing an insect diet and 15-25 H. virescens eggs.
The compounds were formulated using a solution containing 75% v/v water and 25% v/v DMSO. Different concentrations of formulated compounds were sprayed onto the insect diet at 10 μl, using a custom built micro atomizer, at two replications.
After application, microtiter plates were incubated at about 28+1° C. and about 80+5% relative humidity for 5 days. Egg and larval mortality were then visually assessed.

[4] = tested on: Diamond Back Moth (Plutella xylostella); assay: Action on diamond back moth, cabbage leaf dip; conditions: foliar, 3rd instar larvae on dipped cabbage leaves, 72 hours after treatment, read-out: mortality in comparison with untreated controls
Procedure: The active compound is dissolved at the desired concentration in a mixture of 1:1 (v/v) distilled water:acetone. Surfactant (Kinetic® HV) is added at a rate of 0.01% (v/v). The test solution is prepared at the day of use.
Leaves of cabbage were dipped in test solution and air-dried. Treated leaves were placed in petri dishes lined with moist filter paper and inoculated with ten 3rd instar larvae. Mortality was recorded 72 hours after treatment. Feeding damages were also recorded using a scale of 0-100%.

[5] = tested on: Southern Armyworm (Spodoptera eridania), 2nd Instar Larvae; assay: Action on southern armyworm 2nd instar larvae on sprayed lima bean plants; conditions: 96 h, 4 days after treatment, read-out: mortality in comparison with untreated controls
Procedure: The active compounds were formulated by a Tecan liquid handler in 100% cyclohexanone as a 10,000 ppm solution supplied in tubes. The 10,000 ppm solution was serially diluted in 100% cyclohexanone to make interim solutions. These served as stock solutions for which final dilutions were made by the Tecan in 50% acetone:50% water (v/v) into 10 or 20 ml glass vials. A nonionic surfactant (Kinetic®) was included in the solution at a volume of 0.01% (v/v). The vials were then inserted into an automated electrostatic sprayer equipped with an atomizing nozzle for application to plants/insects.
Lima bean plants (variety Sieva) were grown 2 plants to a pot and selected for treatment at the 1st true leaf stage. Test solutions were sprayed onto the foliage by an automated electrostatic plant sprayer equipped with an atomizing spray nozzle. The plants were dried in the sprayer fume hood and then removed from the sprayer. Each pot was placed into perforated plastic bags with a zip closure. About 10 to 11 armyworm larvae were placed into the bag and the bags zipped closed. Test plants were maintained in a growth room at about 25° C. and about 20-40% relative humidity for 4 days, avoiding direct exposure to fluorescent light (24 hour photoperiod) to prevent trapping of heat inside the bags. Mortality and reduced feeding were assessed 4 days after treatment, compared to untreated control plants.

[6] = tested on: Orchid Thrips (Dichromothrips corbetti); assay: Action on orchid thrips, floral-immersion technique; conditions: adult thrips, 72 hours after treatment, read-out: mortality in comparison with untreated controls
Procedure: Dichromothrips corbetti adults used for bioassay were obtained from a colony maintained continuously under laboratory conditions. For testing purposes, the test compound is diluted in a 1:1 mixture of acetone:water (vol:vol), plus Kinetic® HV at a rate of 0.01% v/v.
Thrips potency of each compound was evaluated by using a floral-immersion technique. All petals of individual, intact orchid flowers were dipped into treatment solution and allowed to drying Petri dishes. Treated petals were placed into individual re-sealable plastic along with about 20 adult thrips. All test arenas were held under continuous light and a temperature of about 28° C. for duration of the assay. After 3 days, the numbers of live thrips were counted on each petal. The percent mortality was recorded 72 hours after treatment.

SMILES | mortality at 800 ppm [1] | mortality at 800 ppm [2] | mortality at 800 ppm [3] | mortality at 500 ppm [4] | mortality at 300 ppm [5] | mortality at 500 ppm [6]
Cc1cc(/C=N/N2C(=O)CS/C2=N\c2ccccc2C(C)C)ccc1-n1cc(NC(=O)c2ccc(OC(F)(F)F)cc2)c(C)n1 [Compound C-11, N-[1-[4-[(E)-[(2Z)-2-(2-isopropylphenyl)imino-4-oxo-thiazolidin-3-yl]iminomethyl]-2-methyl-phenyl]-3-methyl-pyrazol-4-yl]-4-(trifluoromethoxy)benzamide] | ≥ 50% | ≥ 75% | ≥ 75% | ≥ 75% | ≥ 75% | –
Cc1nn(-c2ccc(/C=N/NC(=S)Nc3ccccc3C(C)C)cc2)cc1NC(=O)c1ccc2c(c1)OC(F)(F)O2 [Compound C-16, 2,2-difluoro-N-[1-[4-[(E)-[(2-isopropylphenyl)carbamothioylhydrazono]methyl]phenyl]-3-methyl-pyrazol-4-yl]-1,3-benzodioxole-5-carboxamide] | ≥ 50% | ≥ 75% | ≥ 75% | ≥ 75% | ≥ 75% | ≥ 75%
Cc1nn(-c2ccc(/C=N/N=C3\SCC(=O)N3c3ccccc3C(C)C)cc2)cc1NC(=O)c1ccc2c(c1)OC(F)(F)O2 [Compound C-17, 2,2-difluoro-N-[1-[4-[(E)-[(Z)-[3-(2-isopropylphenyl)-4-oxo-thiazolidin-2-ylidene]hydrazono]methyl]phenyl]-3-methyl-pyrazol-4-yl]-1,3-benzodioxole-5-carboxamide] | ≥ 50% | ≥ 75% | ≥ 75% | ≥ 75% | ≥ 75% | –
Cc1nn(-c2ccc(/C=N/NC(=S)Nc3ccccc3C(C)C)cc2)cc1C(=N)Nc1ccc(OC(F)(F)F)cc1 [Compound C-52, 1-(2-isopropylphenyl)-3-[(E)-[4-[3-methyl-4-[N-[4-(trifluoromethoxy)phenyl]carbamimidoyl]pyrazol-1-yl]phenyl]methyleneamino] thiourea] | ≥ 50% | ≥ 75% | ≥ 75% | ≥ 75% | ≥ 75% | ≥ 75%
Cc1nn(-c2ccc(/C=N/N3C(=O)CS/C3=N\c3ccccc3C(C)C)cc2)cc1C(=N)Nc1ccc(OC(F)(F)F)cc1 [Compound C-53, 1-[4-[(E)-[(2Z)-2-(2-isopropylphenyl)imino-4-oxo-thiazolidin-3-yl]iminomethyl]phenyl]-3-methyl-N-[4-(trifluoromethoxy)phenyl]pyrazole-4-carboxamidine] | ≥ 50% | ≥ 75% | ≥ 75% | ≥ 75% | ≥ 75% | –
